According to patent US6303596A, “Use of taurolidine for treatment of leukemias” (priority 2000, dated 2001):
Several values for one entry are separate records, joined by “and”; a condition that tells them apart may be missing. Identical values can stand only once.

Assays:
[1] = tested on: GM5387; assay: TUNEL / propidium iodide flow cytometry, GM5387; format: cell-based, human; settings: GM5387; taurolidine 100 μg/ml or anisomycin 1 μg/ml for 4 h, assayed at 6 hours; mean ± SD
Protocol: (§1) In the second method, DNA fragmentation was detected via TUNEL assay according to the manufacturer's instructions. With this methodology, 2×10^6 cells were fixed with 2% paraformaldehyde, permeabilized with 0.1% Triton X-100/0.1% citrate, incubated at 37° C. with terminal deoxynucleotidyl transferase and FITC-dUTP, rinsed and analyzed by flow cytometry. Enhanced FITC signal indicates apoptosis-specific DNA fragmentation. Gavriali, et al, "Identification of programmed cell death in situ via specific labeling of nuclear DNA fragmentation," J Cell Biol 119:493 (1992). Parallel aliquots of unfixed cells were treated with PI and FITC-conjugated anti-CD14 and analyzed by flow cytometry, in order to identify cells with permeable cell membranes (since PI binds to DNA but is excluded from cells with intact plasma membranes) and also to determine the cell-specificity of the apoptotic signal.
(§2) In another study, TUNEL assays were performed on all cell lines 6 hours after cells were initially exposed to taurolidine (cells were treated for 4 hours, rinsed, and then incubated for 2 more hours before TUNEL assay was performed).
(§3) . Taurolidine and anisomycin induced apoptosis in MM6, HL-60, and Jurkat cells (Table VIII). MM6 and HL-60 cells were similarly effected, with >80% TUNEL-positive cells after 6 hours. […]
(§4) Data are percent of total cell-size events, and are expressed as mean ± […]

[2] = tested on: REH; assay: TUNEL / propidium iodide flow cytometry, REH; format: cell-based, human; settings: taurolidine 100 μg/ml or anisomycin 1 μg/ml for 4 h, mean ± SD
Protocol: as §1, §2
(§5) . Taurolidine and anisomycin induced apoptosis in MM6, HL-60, and Jurkat cells (Table VIII). MM6 and HL-60 cells were similarly effected, with >80% TUNEL-positive cells after 6 hours. Jurkat cells were less sensitive, with approximately 50% of cells induced to undergo apoptosis after taurolidine treatment. After 6 hours, 73% of anisomycin-treated REH cells were apoptotic, with less than 20% of taurolidine-treated REH cells being TUNEL-positive. However, assay of cells 24 hours after
(§6) ^a Analysis by flow cytometry after staining cells with propidium
(§7) iodide and processing for TUNEL.
(§8) Data are percent of total cell-size events, and are expressed as mean ±
(§9) Cells were treated for 4 hours with taurolidine (100 μg/ml) or
(§10) anisomycin (1 μg/ml), and then assayed at 6 hours.
(§11) Data are percent of total cell-sized events, and are expressed as mean ±
(§12) anisomycin (1 μg/ml), and then assayed at 24 hours.

[3] = tested on: HL-60; assay: TUNEL / propidium iodide flow cytometry, HL-60; format: cell-based, human; settings: HL-60; taurolidine 100 μg/ml or anisomycin 1 μg/ml for 4 h, assayed at 6 hours; mean ± SD
Protocol: as §1
(§13) Consequently, TUNEL analysis was performed on PBMC at 3, 6, or 24 hours after treatment with 25 to 100 μg/ml taurolidine. Aliquots of harvested cells were also labeled with FITC-conjugated anti-CD14 antibodies and PI, which allowed identification of monocytes (CD14-positive cells) and cells with damaged cell membranes (PI-positive cells). […] Thus, nearly 75% of the monocytes were TUNEL-positive following treatment with 100 μg/ml taurolidine for six hours. Confirmation that the TUNEL-positive cells were monocytes was obtained by staining with FITC-conjugated anti-CD14.
as §2, §5, §6, §7, §8, §9, §10

[4] = tested on: MM6; assay: TUNEL / propidium iodide flow cytometry, MM6; format: cell-based, human; settings: MM6; taurolidine 100 μg/ml or anisomycin 1 μg/ml for 4 h, assayed at 6 hours; mean ± SD
Protocol: as §1, §13, §2, §5, §6, §7, §8, §9, §10

[5] = tested on: ECV304; assay: TUNEL / propidium iodide flow cytometry, ECV304; format: cell-based, human; settings: ECV304; taurolidine 100 μg/ml or anisomycin 1 μg/ml for 4 h, assayed at 6 hours; mean ± SD
Protocol: as §1, §2, §3, §4

[6] = tested on: Lymphocytes; assay: tissue or blood; format: cell-based, human; settings: whole blood
Protocol: (§14) FIGS. 15A, 15B, and 15C depict TUNEL analysis of PBMC treated with taurolidine in whole blood, for control cells, taurolidine-treated cells, and anisomycin-treated cells, respectively . Cells were incubated with 500 μg/ml taurolidine for 4 hours, resuspended in fresh medium, incubated for two hours further and processed for TUNEL analysis. Parallel samples were stained with FITC-conjugated anti-CD14 and PI as described herein. Ten thousand events were recorded per sample. TUNEL signal (x -axis) is a measure of DNA fragmentation, while FSC (y-axis) is related to cell size. TUNEL-negative lymphocytes are bounded by rectangle R 1, while TUNEL-negative monocytes (CD 14 positive cells) are bounded by rectangle R2. R3 bounds the TUNEL-positive population of cells. There were minimal numbers of PI-positive cells in 6 hour samples (see Table VI).
as §1
(§15) Taurolidine at 100 μg/ml induced apoptosis of approximately 75% of purified peripheral blood monocytes when these cells were incubated in culture medium. However, in order to more closely mimic the milieu of leukocytes in vivo, induction of apoptosis in PBMC by taurolidine was studied in whole blood (anticoagulated with heparin). As before, apoptosis was quantitated by measuring the loss of monocytes from a TUTNEL-negative (no DNA fragmentation), CD 14 positive population of cells which was concomitant with the appearance of a TUNEL-positive population of cells. Treatment of PBMC in whole blood resulted
(§16) in a shift of the taurolidine dose-response curve. […] As a positive control for induction of apoptosis, some cells were treated with anisomycin, a protein synthesis inhibitor known to induce apoptosis in monocytes.
(§17) ^a Analysis by flow cytometry after staining cells with PI and
(§18) processing for TUNEL. Data are mean ± SD of 2 experiments.
(§19) ^b Percent of cells present in the TUNEL-negative region in control

[7] = tested on: Monocytes; assay: tissue or blood; format: cell-based, human
Protocol: as §14, §1, §15, §16, §17, §18, §19

[8] = tested on: Jurkat; assay: TUNEL / propidium iodide flow cytometry, Jurkat; format: cell-based, human; settings: taurolidine 100 μg/ml or anisomycin 1 μg/ml for 4 h, assayed at 6 hours, mean ± SD
Protocol: as §1, §2, §3, §4

[9] = tested on: K562; assay: TUNEL / propidium iodide flow cytometry, K562; format: cell-based, human; settings: taurolidine 100 μg/ml or anisomycin 1 μg/ml for 4 h, mean ± SD
Protocol: as §1, §2, §5, §6, §7, §8, §9, §10, §11, §12

[10] = tested on: TNFα; assay: LPS-induced TNFα expression/secretion by MM6 cells, ELISA; format: cell-based, human; settings: MM6, taurine 44 μg/ml
Protocol: FIG. 3A and FIG. 3B are graphs depicting taurolidine inhibition of LPS-induced alpha […] (TNFα) expression by monocytic cells as determined by assay procedures. FIG. 3A represents MM6 cells; FIG. 3B represents PBMC. The cells were induced with LPS (hatched bars: 100 ng/ml LPS in RPMI+10% BCS; solid bars: 10 ng/ml in AIM-V+0.01% BCS) in the presence of varying concentrations of taurolidine. After four hours, cell supernatants were collected for TNFα ELISA. Data are expressed as percent of TNFα levels measured in cell cultures treated with LPS alone (no taurolidine or vehicle). Experiments were performed with duplicate samples and were repeated at least three times. Values shown in FIG. 3A are from a representative experiment. Values shown in FIG. 3B are mean±SEM of three experiments.
(§20) All cells were cultured in a 5% CO2 atmosphere at 37° C. MM6 cells were grown in RPMI supplemented with 10% BCS, 2 mM L-glutamine, and 50 μg/ml gentamicin (RPMI+10% BCS). In some experiments, MM6 cells were rinsed once with HBSS without Ca^++ or Mg^++ and once with AIM-V before finally being resuspended in AIM-V supplemented with 0.01% BCS (AIM-V+0.01% BCS). […] AIM-V was supplemented with a low amount of BCS (0.01%) in order to provide a source of LPS-binding protein, which enhances the response of monocytic cells to LPS. Ulevitch, R. J. and Tobias, P. S., "Recognition of endotoxin by cells leading to transmembrne signaling," Curr Opin Immunol 6:125 (1994). HL-60, REH, and Jurkat were cultured in RPMI supplemented with 10% heat inactivated fetal bovine serum (FBS), 2 mM L-glutamine, and 50 μg/ml gentamicin. ECV304 were cultured in M199 supplemented with 10% FBS, mM L-glutamine, and 50 μg/ml gentamicin. GM5387 was cultured in MEM supplemented with 20% FBS, 2 mM L-glutamine, and 50 μg/ml gentamicin.
For induction of TF or TNFα expression, MM6 cells or PBMC were cultured either in RPMI supplemented with 10% BCS or in AIM-V+0.01% BCS, and stimulated by adding LPS to final concentrations of 10 to 100 ng/ml. […]

[11] = tested on: tissue factor (TF); assay: LPS-induced tissue factor (TF) expression in MM6 cells, ELISA; format: cell-based, human; settings: MM6, taurine up to 0.5 mg/ml
Protocol: FIG. 2A represents MM6 cells; FIG. 2B represents PBMC. The cells were induced with LPS (hatched bars: 100 ng/ml LPS in RPMI supplemented with 10% BCS (RPMI+10% BCS); solid bars: 10 ng/ml in AIM-V+0.01% BCS) in the presence of varying concentrations of taurolidine,or with a dilution of the vehicle equivalent to that given to cells receiving 100 μg/ml taurolidine. After four hours, cells were collected and lysates were prepared for TF ELISA. Data are expressed as percent of TF antigen measured in cells treated with LPS alone (no taurolidine or vehicle). Experiments were performed with duplicate samples and were repeated at least three times. Values shown are mean±SEM of all experiments.
as §20, with “Ulevitch, R. J. and Tobias, P. S., "Recognition of endotoxin by cells leading to transmembrne signaling," Curr Opin Immunol 6:125 (1994).” left out
For induction of TF or TNFα expression, MM6 cells or PBMC were cultured either in RPMI supplemented with 10% BCS or in AIM-V+0.01% BCS, and stimulated by adding LPS to final concentrations of 10 to 100 ng/ml. […] Except as noted, taurolidine and LPS were added to the cell cultures simultaneously. For TF determination, cells and culture media together were treated by adding Triton X-100 (1% final) and EDTA (7 mmol/L final), and the resulting lysates assayed by ELISA. […] For TNFα determination, cells were removed by centrifugation for 5 min at 250×g, and the supernatants were assayed by ELISA.

[12] = tested on: human blood monocytes; settings: cited from earlier work

For `COc1ccc(C[C@H]2NC[C@H](O)[C@H]2OC(C)=O)cc1` [anisomycin], which “% propidium iodide positive” value [1] is on record?
The value was 5.4 ± 3.2%.

And the “% TUNEL-positive” value ([2]; assayed at 6 hours)?
The value was 73% and 72.9 ± 7.4%.

What about the “% propidium iodide positive” value ([2]; assayed at 6 hours) of the same molecule?
Its value is 18.4 ± 0.5%.

And the “% TUNEL-positive” value ([2]; assayed at 24 hours)?
Its value is 53.0 ± 2.6%.

And the “% propidium iodide” value ([2]; assayed at 24 hours)?
The value was 51.6 ± 17.0%.

And the “% TUNEL-positive” value [3]?
The value was > 80% and 96.1 ± 6.8%.

And the “% propidium iodide positive” value [3]?
Its value is 28.3 ± 15.3%.

What about the “% TUNEL-positive” value [4] of the same molecule?
The value was > 80% and 92.0 ± 2.3%.

And the “% propidium iodide positive” value [4]?
Its value is 19.1 ± 5.4%.

What about the “% propidium iodide positive” value [5] of the same molecule?
Its value is 2.2 ± 3.1%.

What about the “induction of apoptosis in lymphocytes” value [6] of the same molecule?
Its value is “no evidence for a significant effect”.

What about the “TUNEL-negative monocytes after anisomycin” value ([7]; PBMC in whole blood) of the same molecule?
The value was “loss of TUNEL-negative monocytes”.

What about the “TUNEL-positive cells after anisomycin” value ([7]; whole blood, 6 hour incubation, versus taurolidine) of the same molecule?
Its value is “fewer TUNEL-positive cells”.

And the “% TUNEL-positive” value [8]?
The value was 69.6 ± 19.8%.

And the “% propidium iodide positive” value [8]?
The value was 5.1 ± 3.4%.

What about the “% propidium iodide positive” value ([9]; assayed at 6 hours) of the same molecule?
The value was 4.8 ± 3.1%.

And the “% TUNEL-positive” value ([9]; assayed at 24 hours)?
The value was 2.2 ± 6.2%.

What about the “% propidium iodide” value ([9]; assayed at 24 hours) of the same molecule?
The value was 7.1 ± 2.3%.

And the “% TUNEL-positive” value ([9]; assayed at 24 hours, listed as Anisomycin)?
The value was “less than 10%”.

What does the source list for `NCCS(=O)(=O)O` [taurine]?
effect on TNFα expression [10]: no effect on TNFα expression; effect on TF expression [11]: no effect on TF expression

B1: IL-4: anti-inflammatory cytokine IL-4 (protein, UniProt P05112 25-153, looked up)
Interleukin-4: HKCDITLQEIIKTLNSLTEQKTLCTELTVTDIFAASKNTTEKETFCRAATVLRQFYSHHEKDTRCLGATAQQFHRHKQLIRFLKRLDRNLWGLAGLNSCPVKEANQSTLENFLERLKTIMREKYSKCSS
Which “effect on apoptosis in LPS-stimulated monocytes” value [12] does the source give for B1 here?
Its value is “can enhance apoptosis”.
